Data: patent US20210386814A1, “METHODS AND COMPOUND FOR THE TREATMENT OF MALARIA” (priority 2020, published 2021)
≈ marks a conversion by molar mass, not a printed value. Read-outs that look alike come from different tables or passages of the source.

Tests used:
[1] = system: P. falciparum culture; details: cited from earlier work
[2] = system: RF laboratory strain of HIV-1; assay: antiviral evaluation in CEM-SS cell line against HIV-1 RF; type: cell-based; details: CEM-SS cells, HIV-1 RF strain
Description: The purified fraction 90I may yield a fifty percent effective concentration (EC50) of 0.020 ug/ml. At the same time, there was no discernible drug induced toxicity in this study (50% inhibitory concentration ([…]) was greater than the high-test concentration of 100 ug/ml).

[3] = system: gamma interferon; assay: in vitro gamma interferon production; type: cell-based
Description: Moreover, the increase in gamma interferon may have a far greater impact on reversing the course of HIV-1 infection. […] Therefore, further evaluation of 90I in malaria cell-lines may provide the opportunity to find new clinical uses for an established HIV antiprotease patented drug. Also, the purpose of this approach is to lower the costs and shorten the timeframe of product development.

[4] = molecular target: P. falciparum lactate dehydrogenase (Plasmodium falciparum, UniProt Q27743); details: cited from earlier work
[5] = molecular target: P. falciparum aspartic protease plasmepsin II (Plasmodium falciparum, UniProt P46925); details: read-out: 1050, plasmepsin II; cited from earlier work
Chain of P. falciparum aspartic protease plasmepsin II (P46925 125-453): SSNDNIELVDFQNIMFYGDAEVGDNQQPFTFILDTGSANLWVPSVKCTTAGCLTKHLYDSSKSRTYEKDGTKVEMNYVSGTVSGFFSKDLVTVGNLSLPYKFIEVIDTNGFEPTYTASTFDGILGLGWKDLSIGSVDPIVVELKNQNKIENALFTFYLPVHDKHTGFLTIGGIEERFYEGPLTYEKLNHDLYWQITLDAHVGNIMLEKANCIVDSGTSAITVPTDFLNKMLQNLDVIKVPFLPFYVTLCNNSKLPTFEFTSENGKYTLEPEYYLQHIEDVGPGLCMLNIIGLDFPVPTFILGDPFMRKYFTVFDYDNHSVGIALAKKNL

Chain of P. falciparum lactate dehydrogenase (Q27743 whole entry): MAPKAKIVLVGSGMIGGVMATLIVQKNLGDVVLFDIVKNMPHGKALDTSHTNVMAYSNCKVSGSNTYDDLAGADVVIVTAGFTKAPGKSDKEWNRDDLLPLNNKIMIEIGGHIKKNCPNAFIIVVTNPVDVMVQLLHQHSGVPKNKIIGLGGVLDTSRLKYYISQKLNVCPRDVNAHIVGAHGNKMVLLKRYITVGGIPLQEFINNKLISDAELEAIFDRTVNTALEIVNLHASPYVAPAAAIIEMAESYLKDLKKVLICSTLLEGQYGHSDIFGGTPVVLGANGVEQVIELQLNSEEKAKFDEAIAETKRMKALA

CC(C)C[C@H](NC(=O)[C@H]1O[C@@H]1C(=O)O)C(=O)NCCCCN=C(N)N (relative stereo) [E64, trans-Epoxysuccinyl-L-leucylamido(4-guanidino)butane]
effects on P. falciparum culture [1]: blocked parasite release

O=C(OCCOCCOC(=O)c1ccccc1)c1ccccc1 [90I, diethylene glycol dibenzoate]
therapeutic index (T1=IC50/EC50) [2]: greater than 5000 | EC50 ([2]; Human immunodeficiency virus 1, read-out: fifty percent effective concentration (EC50)): 0.02 µg/mL (≈ 0.0636 µM) | production of gamma interferon [3]: increased production of gamma interferon

CC(=O)N[C@@H](CC(C)C)C(=O)N[C@@H](CC(C)C)C(=O)N[C@H](C=O)CCCNC(=N)N [Leupeptin, N-acetyl-L-leucyl-L-leucy-L-argininal]
effects on P. falciparum culture ([1]; 10 μg/ml): All three of these effects were also seen

CCCC[C@@H](C=O)NC(=O)[C@H](CC(C)C)NC(=O)OCc1ccccc1 [calpeptin]
effects on P. falciparum culture ([1]; 1 μM): All three of these effects were also seen

CCN(CC)CCCC(C)Nc1ccnc2cc(Cl)ccc12 (centres unmarked) [chloroquine]
inhibition of lactate dehydrogenase [4]: weak inhibitor

Cc1cccc(C)c1OCC(=O)N[C@@H](Cc1ccccc1)[C@@H](O)C[C@H](Cc1ccccc1)NC(=O)[C@H](C(C)C)N1CCCNC1=O [lopinavir]
IC50 [5]: 2.7 µM
